Values of other authors, collected in patent US9839609B2 (priority 2009, dated 2017).

Assays:
[1] = in vivo
[2] = chronic administration
[3] = oral, rats

C[S+](C)[O-] [DMSO, Dimethyl sulfoxide]
fraction of DMSO metabolized into MSM in the body [1]: Approximately 17%
dose chronically administered without any serious adverse effects [2]: 5 g/kg daily

CS(C)(=O)=O [MSM, Methylsulfonylmethane]
LD50 [3]: approximately 17 g/kg
